Reference: publication PMC11227529, “An in-situ peptide-antibody self-assembly to block CD47 and CD24 signaling enhances macrophage-mediated phagocytosis and anti-tumor immune responses” (Nature Communications, 2024)
Like-named read-outs stand apart in the source and are kept apart here.

How the values were obtained:
4T1 subcutaneous tumor = experiment: Ex vivo NIR fluorescence of tumor and major organs, 48 h; format: in vivo, mouse
From the text: (§1) After the intravenous administration of free Cy5.5, ^Cy5.5SAMIs, and ^Cy5.5PAC-SABIs, the mice were euthanized at the 48-h mark, and the heart, liver, spleen, lung, kidney, and tumor were harvested for ex vivo imaging (Fig. 5e, f). […] Despite the observed retention in metabolic organs such as the liver and kidney, distinct variations in tissue distribution were noted between ^Cy5.5SAMIs and ^Cy5.5PAC-SABIs (Fig. 5e, f and Supplementary Fig. 30). Specifically, ^Cy5.5PAC-SABIs achieved a marked selective enrichment in both BC and PC tumors. […] The discernible dissimilarity between these two molecules could be attributed to the presence of targeted ligands and EISA, which augmented the precise recognition of ^Cy5.5PAC-SABIs toward cancer cells and facilitated their proficient molecular assembly. To further observe the distribution of ^Cy5.5PAC-SABIs in the BC and PC tissues, we analyzed the Cy5.5 fluorescence of tumor sections. […] Moreover, we employed SEM imaging to visualize the in situ self-assembly morphology of PAC-SABIs.
(§2) To obtain breast and pancreatic subcutaneous xenografts, 1 × 10^6 4T1 or PAN02 cells were implanted into the right hind limb of BALB/c and C57BL/6 mice, respectively. When the tumor size reached ≈ 50 mm^3, mice were randomly sorted into free Cy5.5, ^Cy5.5SAMIs, and ^Cy5.5PAC-SABIs groups. The 4T1 and PAN02 tumor-bearing mice were correspondingly intravenously injected with free Cy5.5, ^Cy5.5SAMIs, and ^Cy5.5PAC-SABIs (the dose of Cy5.5 was 1 mg/kg) for in vivo fluorescence imaging with IVIS system (Perkin Elmer, USA). Then, the mice were sacrificed to collect the major organs (heart, liver, spleen, lung, and kidney) and tumors for ex vivo fluorescence imaging. Finally, the 4T1 and PAN02 tumors were embedded in Tissue-Tek OCT compound (Sakura, Japan), and cryosections of 8 µm thickness were prepared. The Cy5.5 signal was detected using a fluorescence microscope (Nikon, Japan).
(§3) Supplementary Fig. 30 Quantification analysis of the ex vivo NIR fluorescence intensity in tumors and major organs. a Quantitative calculation of average fluorescence signal in 4T1 tumor and major organ area. The error bars represent the mean ± SD (n = 3 mice; ****p < 0.0001; the p value was analyzed by a two-tailed unpaired Student’s t-test).b Quantitative calculation of average fluorescence signal in PAN02 tumor and major organ area. The error bars represent the mean ± SD (n = 3 mice; ****p < 0.0001; the p value was analyzed by a two-tailed unpaired Student’s t-test).Source data are provided as a Source Data file.
(§4) (1 picture or pasted object on this page, not shown here)

PAN02 subcutaneous tumor = format: in vivo, mouse
From the text: as §1, §2, §3, §4

cyanine 5.5 [free Cy5.5] was tested, and the “ex vivo NIR fluorescence accumulation” value (4T1 subcutaneous tumor; 4T1 and PAN02 tumor-bearing mice, 48 h after i.v. injection, tumors and major organs) was “negligible accumulation in the tumors and major organs”, the Average radiant efficiency (4T1 subcutaneous tumor; 4T1 tumor, replicate 1) was 0.156 × 10^3 P/Sec and the Average radiant efficiency (4T1 subcutaneous tumor; 4T1 tumor, replicate 2) was 0.054 × 10^3 P/Sec. For the same substance, the Average radiant efficiency (4T1 subcutaneous tumor; 4T1 tumor, replicate 3) was 0.174 × 10^3 P/Sec, the Average radiant efficiency (4T1 subcutaneous tumor; Heart, 4T1 model, replicate 1) was 0.085 × 10^3 P/Sec and the Average radiant efficiency (4T1 subcutaneous tumor; Heart, 4T1 model, replicate 2) was 0.174 × 10^3 P/Sec. The Average radiant efficiency (4T1 subcutaneous tumor; Heart, 4T1 model, replicate 3) was 0.168 × 10^3 P/Sec, the Average radiant efficiency (4T1 subcutaneous tumor; Kidney, 4T1 model, replicate 1) was 0.115 × 10^3 P/Sec and the Average radiant efficiency (4T1 subcutaneous tumor; Kidney, 4T1 model, replicate 2) was 0.12 × 10^3 P/Sec. The Average radiant efficiency (4T1 subcutaneous tumor; Kidney, 4T1 model, replicate 3) was 0.073 × 10^3 P/Sec, the Average radiant efficiency (4T1 subcutaneous tumor; Liver, 4T1 model, replicate 1) was 0.118 × 10^3 P/Sec and the Average radiant efficiency (4T1 subcutaneous tumor; Liver, 4T1 model, replicate 2) was 0.061 × 10^3 P/Sec. For the same substance, the Average radiant efficiency (4T1 subcutaneous tumor; Liver, 4T1 model, replicate 3) was 0.22 × 10^3 P/Sec, the Average radiant efficiency (4T1 subcutaneous tumor; Lung, 4T1 model, replicate 1) was 0.137 × 10^3 P/Sec and the Average radiant efficiency (4T1 subcutaneous tumor; Lung, 4T1 model, replicate 2) was 0.09 × 10^3 P/Sec. The Average radiant efficiency (4T1 subcutaneous tumor; Lung, 4T1 model, replicate 3) was 0.095 × 10^3 P/Sec, the Average radiant efficiency (4T1 subcutaneous tumor; Spleen, 4T1 model, replicate 1) was 0.157 × 10^3 P/Sec and the Average radiant efficiency (4T1 subcutaneous tumor; Spleen, 4T1 model, replicate 2) was 0.112 × 10^3 P/Sec. The Average radiant efficiency (4T1 subcutaneous tumor; Spleen, 4T1 model, replicate 3) was 0.069 × 10^3 P/Sec, the Average radiant efficiency (PAN02 subcutaneous tumor; Heart, PAN02 model, replicate 1) was 0.069 × 10^3 P/Sec and the Average radiant efficiency (PAN02 subcutaneous tumor; Heart, PAN02 model, replicate 2) was 0.108 × 10^3 P/Sec. The Average radiant efficiency (PAN02 subcutaneous tumor; Heart, PAN02 model, replicate 3) was 0.122 × 10^3 P/Sec, the Average radiant efficiency (PAN02 subcutaneous tumor; Kidney, PAN02 model, replicate 1) was 0.064 × 10^3 P/Sec and the Average radiant efficiency (PAN02 subcutaneous tumor; Kidney, PAN02 model, replicate 2) was 0.137 × 10^3 P/Sec. The Average radiant efficiency (PAN02 subcutaneous tumor; Kidney, PAN02 model, replicate 3) was 0.152 × 10^3 P/Sec, the Average radiant efficiency (PAN02 subcutaneous tumor; Liver, PAN02 model, replicate 1) was 0.094 × 10^3 P/Sec and the Average radiant efficiency (PAN02 subcutaneous tumor; Liver, PAN02 model, replicate 2) was 0.126 × 10^3 P/Sec. For the same substance, the Average radiant efficiency (PAN02 subcutaneous tumor; Liver, PAN02 model, replicate 3) was 0.145 × 10^3 P/Sec, the Average radiant efficiency (PAN02 subcutaneous tumor; Lung, PAN02 model, replicate 1) was 0.056 × 10^3 P/Sec and the Average radiant efficiency (PAN02 subcutaneous tumor; Lung, PAN02 model, replicate 2) was 0.103 × 10^3 P/Sec. The Average radiant efficiency (PAN02 subcutaneous tumor; Lung, PAN02 model, replicate 3) was 0.159 × 10^3 P/Sec, the Average radiant efficiency (PAN02 subcutaneous tumor; PAN02 tumor, replicate 1) was 0.125 × 10^3 P/Sec and the Average radiant efficiency (PAN02 subcutaneous tumor; PAN02 tumor, replicate 2) was 0.056 × 10^3 P/Sec. The Average radiant efficiency (PAN02 subcutaneous tumor; PAN02 tumor, replicate 3) was 0.141 × 10^3 P/Sec, the Average radiant efficiency (PAN02 subcutaneous tumor; Spleen, PAN02 model, replicate 1) was 0.046 × 10^3 P/Sec and the Average radiant efficiency (PAN02 subcutaneous tumor; Spleen, PAN02 model, replicate 2) was 0.093 × 10^3 P/Sec. The Average radiant efficiency (PAN02 subcutaneous tumor; Spleen, PAN02 model, replicate 3) was 0.157 × 10^3 P/Sec.
